Source: patent US20220324835A1 (Nurix Therapeutics, Inc., priority 2018, published 2022)

Key:
[1] = biological target: T1, Cbl-b (Homo sapiens, UniProt Q13191); experiment: Cbl-b inhibition assay (Cbl-b activity assay, FRET, Biological Example 1; 100 mM NaCl, 60 nM Src kinase); assay type: biochemical; conditions: upper bound stated in text lists; read-out: IC50 values in the Cbl-b inhibition assay of Biological Example 1
In short: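 Steps: Src kinase phosphorylates N-terminal biotinylated Avi-tagged Cbl-b; phosphorylated Cbl-b binds Bodipy-fluorescein ubiquitin-loaded UbcH5B; streptavidin-terbium on Cbl-b sits close to the fluorescein label, producing FRET. Inhibitors block UbcH5B-Ub binding.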

[2] = tested on: T-cell; experiment: IL-2 secretion from T-cells co-stimulated with anti-CD3 and anti-CD28 antibody (Biological Example 2); assay type: cell-based, human; conditions: Homo sapiens, T-cell
In short: (§1)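 Values are fold-change over baseline: readings (IL-2 release, CD25 staining) from inhibitor-treated T-cells divided against untreated cells […]. No detailed procedure stated.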

[3] = tested on: T-cell; experiment: IL-2 secretion from T-cells stimulated with anti-CD3 antibody alone (Biological Example 2); assay type: cell-based, human; conditions: T-cell
[4] = tested on: T-cell; experiment: CD25 cell surface staining on T-cells co-stimulated with anti-CD3 and anti-CD28 antibody (Biological Example 2); assay type: cell-based, human; conditions: Homo sapiens, T-cell
In short: as §1

[5] = tested on: T-cell; experiment: CD25 cell surface staining on T-cells stimulated with anti-CD3 antibody alone (Biological Example 2); assay type: cell-based, human; conditions: T-cell
[6] = biological target: T1, Cbl-b; experiment: Cbl-b activity assay (Cbl-b inhibition assay), TR-FRET of Cbl-b interaction with UbcH5B-Ub; assay type: biochemical; conditions: assay buffer with 100 mM NaCl, 60 nM Src kinase; read-out: Cbl-b activity IC50
In short: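 Compound-treated Cbl-b was incubated 1.5 h with Src kinase (60 nM final; 30 nM for asterisked values, which also used 50 mM instead of 100 mM NaCl), 1 mM ATP and 5 mM MgCl2. Binding to fluorescent Ub-loaded UbcH5B (C85K mutant) was then read by TR-FRET after 1 h more.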

[7] = 0.3 μM Cbl-b inhibitor, fold change over baseline (anti-CD3/anti-CD28 stimulated T-cells without inhibitor), read-out: IL-2 secretion Anti-CD3/Anti-CD28 stimulation
[8] = 1 μM Cbl-b inhibitor, fold change over baseline (anti-CD3/anti-CD28 stimulated T-cells without inhibitor), read-out: IL-2 secretion Anti-CD3/Anti-CD28 stimulation
[9] = Homo sapiens, 1 μM Cbl-b inhibitor, fold change over baseline (anti-CD3/anti-CD28 stimulated T-cells without inhibitor), read-out: IL-2 secretion Anti-CD3 stimulation
[10] = 0.3 μM Cbl-b inhibitor, fold change over baseline (anti-CD3/anti-CD28 stimulated T-cells without inhibitor), read-out: CD25 staining Anti-CD3/Anti-CD28 stimulation
[11] = 1 μM Cbl-b inhibitor, fold change over baseline (anti-CD3/anti-CD28 stimulated T-cells without inhibitor), read-out: CD25 staining Anti-CD3/Anti-CD28 stimulation
[12] = Homo sapiens, 1 μM Cbl-b inhibitor, fold change over baseline (anti-CD3/anti-CD28 stimulated T-cells without inhibitor), read-out: CD25 staining Anti-CD3 stimulation
[13] = read-out: IL-2 secretion, Anti-CD3/Anti-CD28 stimulation, fold change over baseline
[14] = read-out: CD25 staining, Anti-CD3/Anti-CD28 stimulation, fold change over baseline

T1 sequence (Q13191 36-427): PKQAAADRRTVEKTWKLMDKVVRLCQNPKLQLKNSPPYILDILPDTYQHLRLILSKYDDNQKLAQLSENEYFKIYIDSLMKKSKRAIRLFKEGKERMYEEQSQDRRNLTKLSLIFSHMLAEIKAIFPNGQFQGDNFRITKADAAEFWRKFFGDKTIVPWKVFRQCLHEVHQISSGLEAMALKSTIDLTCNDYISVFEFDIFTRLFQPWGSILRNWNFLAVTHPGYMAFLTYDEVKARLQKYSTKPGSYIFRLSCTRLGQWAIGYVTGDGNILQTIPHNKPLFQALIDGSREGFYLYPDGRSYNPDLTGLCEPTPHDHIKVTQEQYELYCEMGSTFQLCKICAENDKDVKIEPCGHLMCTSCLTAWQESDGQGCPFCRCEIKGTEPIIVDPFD

Row | Structure (SMILES) | IC50 [1] | fold induction at 0.3 µM [2, 7] | fold induction at 1 µM [2, 8] | fold induction at 1 µM [3, 9] | fold induction at 0.3 µM [4, 10] | fold induction at 1 µM [4, 11] | fold induction at 1 µM [5, 12] | IC50 [6] | other results
1 | CN1C2CCC1CN(c1cc3c(c(C(F)(F)F)c1)CN(c1cccc([C@@](C)(F)C(F)(F)c4nncn4C)c1)C3=O)C2 [Example 564, 6-(8-Methyl-3,8-diazabicyclo[3.2.1]octan-3-yl)-2-(3-((R)-1,1,2-trifluoro-1-(4-methyl-4H-1,2,4-triazol-3-yl)propan-2-yl)phenyl)-4-(trifluoromethyl)isoindolin-1-one] | ≤ 100 nM | 1.01 to 2.5 | 2.51 to 5 | 0.101 to 0.15 | 1.01 to 1.3 | 1.31 to 1.5 | 0.801 to 1 | < 100 nM | 
2 | CN1C2CCC1CN(c1cc3c(c(C(F)(F)F)c1)CN(c1cccc(C4(Cc5nncn5C)COC4)c1)C3=O)C2 [Compound 388, 2-(3-(3-((4-Methyl-4H-1,2,4-triazol-3-yl)methyl)oxetan-3-yl)phenyl)-6-(8-methyl-3,8-diazabicyclo[3.2.1]octan-3-yl)-4-(trifluoromethyl)isoindolin-1-one] | ≤ 100 nM |  |  |  |  |  |  | < 100 nM | fold induction at 0.3 µM [2, 13]: 2.51 to 5; fold induction at 1 µM [2, 13]: 5 to 7.5; fold induction at 1 µM ([3]; Homo sapiens, read-out: IL-2 secretion, Anti-CD3 stimulation, fold change over baseline): 0.151 to 0.2; fold induction at 0.3 µM [4, 14]: 1.01 to 1.3; fold induction at 1 µM [4, 14]: 1.01 to 1.3; fold induction at 1 µM ([5]; Homo sapiens, read-out: CD25 staining, Anti-CD3 stimulation, fold change over baseline): > 1
3 | Cn1cnnc1CC1(c2cccc(N3Cc4c(cc(CN5CCC6(CC6)C5)cc4C(F)(F)F)C3=O)c2)CCC1 [Example 695, 6-((5-azaspiro[2.4]heptan-5-yl)methyl)-2-(3-(1-((4-methyl-4H-1,2,4-triazol-3-yl)methyl)cyclobutyl)phenyl)-4-(trifluoromethyl)isoindolin-1-one] | ≤ 100 nM | > 7.5 | > 7.5 | > 0.201 | 1.31 to 1.5 | 1.31 to 1.5 | > 1 | < 100 nM | 
4 | Cn1cnnc1CC1(c2cccc(NC(=O)c3cc(CN4CCCCC4)nc(C4CC4)n3)c2)COC1 [Example 589, 2-Cyclopropyl-N-(3-(3-((4-methyl-4H-1,2,4-triazol-3-yl)methyl)oxetan-3-yl)phenyl)-6-(piperidin-1-ylmethyl)pyrimidine-4-carboxamide] | ≤ 100 nM | > 7.5 | > 7.5 | > 0.201 | > 1.76 | > 1.76 | > 1 | < 100 nM | 
5 | Cn1cnnc1CC1(c2cccc(N3Cc4c(cc(CN5CCC6CC6C5)cc4C(F)(F)F)C3=O)c2)COC1 (stereo not shown) [Example 646, 6-((3-azabicyclo[4.1.0]heptan-3-yl)methyl)-2-(3-(3-((4-methyl-4H-1,2,4-triazol-3-yl)methyl)oxetan-3-yl)phenyl)-4-(trifluoromethyl)isoindolin-1-one] | ≤ 100 nM | > 7.5 | > 7.5 | > 0.201 | 1.31 to 1.5 | 1.31 to 1.5 | > 1 | < 100 nM | 
6 | COc1ccc2c(c1)CN(Cc1cc3c(c(C(F)(F)F)c1)CN(c1cccc(C4(Cc5nncn5C)COC4)c1)C3=O)C2 [Example 656, 6-((5-methoxyisoindolin-2-yl)methyl)-2-(3-(3-((4-methyl-4H-1,2,4-triazol-3-yl)methyl)oxetan-3-yl)phenyl)-4-(trifluoromethyl)isoindolin-1-one] | ≤ 100 nM | > 7.5 | > 7.5 | > 0.201 | 1.31 to 1.5 | 1.31 to 1.5 | > 1 | < 100 nM | 
7 | CC(c1cc2c(c(C3CC3)n1)CN(c1cccc(C3(Cc4nncn4C)COC3)c1)C2=O)N1CC2(CC2)C1 (stereo not shown) [Example 586, 6-(1-(5-Azaspiro[2.3]hexan-5-yl)ethyl)-4-cyclopropyl-2-(3-(3-((4-methyl-4H-1,2,4-triazol-3-yl)methyl)oxetan-3-yl)phenyl)-2,3-dihydro-1H-pyrrolo[3,4-c]pyridin-1-one] | ≤ 100 nM | 1.01 to 2.5 | 2.51 to 5 | < 0.05 | 1.01 to 1.3 | 1.01 to 1.3 | 0.601 to 0.8 | < 100 nM | 
8 | Cc1ccnn1CC(C)c1cccc(NC(=O)c2cccc(C(F)(F)F)n2)c1 (stereo not shown) [Compound 215, N-[3-[1-methyl-2-(5-methylpyrazol-1-yl)ethyl]phenyl]-6-(trifluoromethyl)pyridine-2-carboxamide] | ≤ 1000 nM |  |  |  |  |  |  | 301 to 1000 nM | fold induction at 0.3 µM ([2]; fold change over baseline, 0.3 μM Cbl-b inhibitor, primary human total T-cells, read-out: IL-2 secretion Anti-CD3/Anti-CD28 stimulation): < 1; fold induction at 1 µM ([2]; fold change over baseline, 1 μM Cbl-b inhibitor, primary human total T-cells, read-out: IL-2 secretion Anti-CD3/Anti-CD28 stimulation): < 1; fold induction at 4 µM ([2]; fold change over baseline, 4 μM Cbl-b inhibitor, primary human total T-cells, read-out: IL-2 secretion Anti-CD3/Anti-CD28 stimulation): 1.01 to 2.5; fold induction at 1 µM ([3]; fold change over baseline, 1 μM Cbl-b inhibitor, primary human total T-cells, read-out: IL-2 secretion Anti-CD3 stimulation): 0.051 to 0.1; fold induction at 8 µM ([3]; fold change over baseline, 8 μM Cbl-b inhibitor, primary human total T-cells, read-out: IL-2 secretion Anti-CD3 stimulation): 0.051 to 0.1; fold induction at 0.3 µM ([4]; fold change over baseline, 0.3 μM Cbl-b inhibitor, primary human total T-cells, read-out: CD25 staining Anti-CD3/Anti-CD28 stimulation): 1.51 to 1.75; fold induction at 1 µM ([4]; fold change over baseline, 1 μM Cbl-b inhibitor, primary human total T-cells, read-out: CD25 staining Anti-CD3/Anti-CD28 stimulation): 1.31 to 1.5; fold induction at 4 µM ([4]; fold change over baseline, 4 μM Cbl-b inhibitor, primary human total T-cells, read-out: CD25 staining Anti-CD3/Anti-CD28 stimulation): 1.51 to 1.75; fold induction at 1 µM ([5]; fold change over baseline, 1 μM Cbl-b inhibitor, primary human total T-cells, read-out: CD25 staining Anti-CD3 stimulation): < 0.6; fold induction at 8 µM ([5]; fold change over baseline, 8 μM Cbl-b inhibitor, primary human total T-cells, read-out: CD25 staining Anti-CD3 stimulation): < 0.6
9 | Cn1cnnc1CC1(c2cccc(N3Cc4c(cc(C5CCOC5)cc4C(F)(F)F)C3=O)c2)COC1 (stereo not shown) [Example 613, 2-(3-(3-((4-methyl-4H-1,2,4-triazol-3-yl)methyl)oxetan-3-yl)phenyl)-6-(THF-3-yl)-4-(trifluoromethyl)isoindolin-1-one] | ≤ 100 nM | 2.51 to 5 | 5 to 7.5 | 0.101 to 0.15 | 1.01 to 1.3 | 1.01 to 1.3 | 0.801 to 1 | < 100 nM | 
10 | Cn1cnnc1CC1(c2cccc(N3Cc4c(cc(CN5CCc6ccccc6C5)cc4C(F)(F)F)C3=O)c2)COC1 [Example 650, 6-((3,4-dihydroisoquinolin-2(1H)-yl)methyl)-2-(3-(3-((4-methyl-4H-1,2,4-triazol-3-yl)methyl)oxetan-3-yl)phenyl)-4-(trifluoromethyl)isoindolin-1-one] | ≤ 100 nM | 5 to 7.5 | > 7.5 | > 0.201 | 1.01 to 1.3 | 1.31 to 1.5 | > 1 | < 100 nM | 
11 | CN1CCN(c2cc3c(c(C(F)(F)F)c2)CN(c2cccc(C4(Cc5nncn5C)COC4)c2)C3=O)CC12CC2 [Example 583, 2-(3-(3-((4-Methyl-4H-1,2,4-triazol-3-yl)methyl)oxetan-3-yl)phenyl)-6-(4-methyl-4,7-diazaspiro[2.5]octan-7-yl)-4-(trifluoromethyl)isoindolin-1-one] | ≤ 100 nM | 2.51 to 5 | 5 to 7.5 | 0.151 to 0.2 | 1.31 to 1.5 | 1.51 to 1.75 | > 1 | < 100 nM | 
12 | Cn1cnnc1CC1(c2cccc(N3Cc4c(cc(N5CC6(C5)CC(F)(F)C6)cc4C(F)(F)F)C3=O)c2)COC1 [Example 602, 6-(6,6-difluoro-2-azaspiro[3.3]heptan-2-yl)-2-(3-(3-((4-methyl-4H-1,2,4-triazol-3-yl)methyl)oxetan-3-yl)phenyl)-4-(trifluoromethyl)isoindolin-1-one] | ≤ 100 nM | 5 to 7.5 | > 7.5 | 0.101 to 0.15 | 1.01 to 1.3 | 1.31 to 1.5 | > 1 | < 100 nM | 
